Source: ChEMBL document CHEMBL2401675, “Design, synthesis, and biological evaluation of novel dipeptide-type SARS-CoV 3CL protease inhibitors: structure-activity relationship study” (Eur J Med Chem, 2013)

biological target: Replicase polyprotein 1a (Severe acute respiratory syndrome-related coronavirus) (UniProt P0C6U8); test: Ratio of Kinact to Ki for SARS coronavirus Chymotrypsin-like protease

SMILES | Ratio
CCOC(=O)C1OC1C(=O)N(CCC(N)=O)NC(=O)[C@@H](CC(=O)[C@H](CC(C)C)NC(=O)OCc1ccccc1)Cc1ccccc1 (some centres not stated) | 1900 M⁻¹ s⁻¹

biological target: Replicase polyprotein 1a (Severe acute respiratory syndrome-related coronavirus, UniProt P0C6U8); test: Inhibition of SARS coronavirus Chymotrypsin-like protease using H-Thr-Ser-Ala-Val-Leu-Gln-Ser-Gly-Phe-Arg-Lys-NH2 as substrate by fluorescence assay

SMILES | Ki
COc1ccc(NCC(=O)N[C@@H](CC(C)C)C(=O)N[C@@H](C[C@@H]2CCNC2=O)C(=O)c2nc3ccccc3s2)cc1 | 3200 nM
CSCC[C@H](NC(=O)OCc1ccccc1)C(=O)N[C@@H](C[C@@H]1CCNC1=O)C(=O)c1nc2ccccc2s1 | 9400 nM
CC(C)C[C@H](NC(=O)Cc1ccccc1)C(=O)N[C@@H](C[C@@H]1CCNC1=O)C(=O)c1nc2ccccc2s1 | 3200 nM
COc1ccc(CCC(=O)N[C@@H](CC(C)C)C(=O)N[C@@H](C[C@@H]2CCNC2=O)C(=O)c2nc3ccccc3s2)cc1 | 610 nM
CC[C@@H](C)[C@H](NC(=O)OCc1ccccc1)C(=O)N[C@@H](C[C@@H]1CCNC1=O)C(=O)c1nc2ccccc2s1 | 29000 nM
COc1ccc(-c2cnc(C(=O)[C@H](C[C@@H]3CCNC3=O)NC(=O)[C@H](CC(C)C)NC(=O)OCc3ccccc3)s2)cc1 | 52000 nM
CC(C)CC(=O)N[C@@H](CC(C)C)C(=O)N[C@@H](C[C@@H]1CCNC1=O)C(=O)c1nc2ccccc2s1 | 5900 nM
COc1ccc(/C=C/C(=O)N[C@@H](CC(C)C)C(=O)N[C@@H](C[C@@H]2CCNC2=O)C(=O)c2nc3ccccc3s2)cc1 | 700 nM
CC(C)C[C@H](NC(=O)CCc1cccnc1)C(=O)N[C@@H](C[C@@H]1CCNC1=O)C(=O)c1nc2ccccc2s1 | 7400 nM
CC(C)C[C@H](NC(=O)OC(C)(C)C)C(=O)N[C@@H](C[C@@H]1CCNC1=O)C(=O)c1nc2ccccc2s1 | 23000 nM
CC(C)C[C@H](NC(=O)/C=C/c1ccccc1)C(=O)N[C@@H](C[C@@H]1CCNC1=O)C(=O)c1nc2ccccc2s1 | 690 nM
Cc1ccc(-c2cnc(C(=O)[C@H](C[C@@H]3CCNC3=O)NC(=O)[C@H](CC(C)C)NC(=O)OCc3ccccc3)s2)cc1 | 37000 nM
CC(C)C[C@H](NC(=O)COc1cccc(N(C)C)c1)C(=O)N[C@@H](C[C@@H]1CCNC1=O)C(=O)c1nc2ccccc2s1 | 840 nM
O=C(N[C@@H](Cc1ccccc1)C(=O)N[C@@H](C[C@@H]1CCNC1=O)C(=O)c1nc2ccccc2s1)OCc1ccccc1 | 1200 nM
CC(C)[C@H](NC(=O)OCc1ccccc1)C(=O)N[C@@H](C[C@@H]1CCNC1=O)C(=O)c1nc2ccccc2s1 | 1710 nM
COc1ccc(OCC(=O)N[C@@H](CC(C)C)C(=O)N[C@@H](C[C@@H]2CCNC2=O)C(=O)c2nc3ccccc3s2)cc1 | 1560 nM
COc1ccc(/C=C/C(=O)N[C@@H](CC(C)C)C(=O)N[C@@H](C[C@@H]2CCNC2=O)C(=O)c2nc3ccccc3s2)cc1OC | 1300 nM
CCCC[C@H](NC(=O)OCc1ccccc1)C(=O)N[C@@H](C[C@@H]1CCNC1=O)C(=O)c1nc2ccccc2s1 | 1600 nM
CC(C)C[C@H](NC(=O)OCc1ccccc1)C(=O)N[C@@H](C[C@@H]1CCNC1=O)C(=O)c1ncc(-c2ccccc2)s1 | 660 nM
CC(C)C[C@H](NC(=O)COc1ccc(O)cc1)C(=O)N[C@@H](C[C@@H]1CCNC1=O)C(=O)c1nc2ccccc2s1 | 8400 nM
COc1ccccc1-c1cnc(C(=O)[C@H](C[C@@H]2CCNC2=O)NC(=O)[C@H](CC(C)C)NC(=O)OCc2ccccc2)s1 | 2500 nM
